The values that follow come from US20150196030A1, “HERBICIDAL COMPOSITION CONTAINING 4-AMINO-3-CHLORO-6-(4-CHLORO-2-FLUORO-3-METHOXYPHENYL) PYRIDINE-2-CARBOXYLIC ACID OR DERIVATIVES THEREOF, FLUROXYPYR OR DERIVATIVES THEREOF, AND PHENOXY AUXINS OR DERIVATIVES THEREOF” (DOW AGROSCIENCES LLC, priority 2014, published 2015).

Common to all, as to test: Field trial, post-emergence weed control, visual percent control
Common to all, as to assay type: in vivo

Test [1] relates to ARTAB: absinth wormwood (Artemisia absinthium). The settings on record: 47 DAA, MB, premix 6.5 + 100 (106.5) g ae/ha, MCPA ester 420 g ae/ha, alone or combined. The source says: (§1) Nine small plot field trials were established across various ecozones in Alberta, Saskatchewan, Manitoba and Ontario, Canada, between 2011 and 2014 to evaluate potential synergy between 1) halauxifen-methyl (100 grams acid equivalent per kilogram (g ae/kg)), fluroxypyr-meptyl as Starane II EC (333 grams acid equivalent per liter (g ae/L) fluroxypyr), and MCPA 2-ethylhexyl ester (MCPA ester; 600 g ae/L), 2) the halauxifen-methyl+fluroxypyr premix (16.25 g ae/L halauxifen-methyl and 250 g ae/L fluroxypyr-meptyl) and MCPA ester (600 g ae/L), and 3) halauxifen-methyl (100 g ae/kg), fluroxypyr-meptyl as Starane II EC (333 g ae/L fluroxypyr), and 2,4-D 2-ethylhexyl ester (2,4-D ester; 660 g ae/L). In trials evaluating synergy between halauxifen-methyl, fluroxypyr-meptyl, and MCPA ester, actives were applied individually at rates of 6.5, 100, and 420 grams acid equivalent per hectare (g ae/ha), respectively, and in a three-way combination at identical rates. When applied individually, halauxifen-methyl was applied in all trials with Turbocharge adjuvant (50% mineral oil/39.5% surfactant blend) at 0.5% volume per volume (v/v). In trials evaluating synergy between the halauxifen-methyl+fluroxypyr premix, and MCPA ester, premix and MCPA ester were applied individually at rates of 82 g ae/ha (5 g ae/ha halauxifen-methyl+77 g ae/ha fluroxypyr) or 106.5 g ae/ha (6.5 g ae/ha halauxifen-methyl+100 g ae/ha fluroxypyr), and 350 or 420 g ae/ha MCPA ester, respectively, and in a two-way combination at rates of 82 g ae/ha premix+350 g ae/ha MCPA ester or […] premix+420 g ae/ha MCPA ester. When applied individually, the halauxifen-methyl+fluroxypyr premix was applied at a rate of 106.5 g ae/ha without an adjuvant, or at a rate of 82 g ae/ha with Turbocharge adjuvant at 0.5% v/v. In trials evaluating synergy between halauxifen-methyl, fluroxypyr-meptyl, and 2,4-D ester, actives were applied individually at rates of 5, 77, and 350 grams acid equivalent per hectare (g ae/ha), respectively, and in a three-way combination at identical rates. When applied individually, halauxifen-methyl was applied with Intake adjuvant (586 grams per liter (g/L) paraffinic oil/242 g/L alkoxylated alcohol non-ionic surfactants) at 1% volume per volume (v/v).
(§2) Trials were established as randomized complete blocks (RCBD) with four replicates. Individual treatments were 2-3 meters (m) wide and 10-11 m long. An untreated control was included in each trial. All trial sites had naturally occurring populations of weeds, which in some trials were augmented with additional weed seeds during trial establishment.
(§3) Herbicides were applied with backpack, bicycle, or tractor-mounted sprayers using carbon dioxide (CO2) as a propellant. All sprayers delivered a uniform spray pattern that provided thorough coverage of the foliage using a water volume of 100-200 liters per hectare (L/ha). All herbicides were applied post-emergence in the spring to early-summer. At the time of herbicide applications, spring wheat, durum wheat, and winter wheat crops were at the four-leaf to three-node stage. Broadleaf weeds were at the seedling stage at the time of herbicide applications.
(§4) Foliar damage to target pest plants was visually assessed as percent control, compared to an untreated control plot. The assessments were based on a percent visual reduction in pest plant biomass and/or stand reduction of weed population. In general, three-to-four replicates were assessed for each treatment, and the results for each experiment (trial) are presented as overall average control. The efficacy of all treatments was assessed at 13-22 days after application (DAA) for an early season rating, 23-39 DAA for a mid-season rating, and 41-84 DAA for a late-season rating. The data were statistically analyzed using various statistical methods, generally including a Tukey's HSD Factorial Analysis of Variance with a significance level of 5%. […]

Test [2] concerns BRSNN: canola, volunteer (Brassica napus). The note with it: SK.
Description: as §1, §2, §3, §4

The subject of test [3] is GAETE: hemp-nettle (Galeopsis tetrahit). The note with it: 14 DAA, AB.
Description: as §1, §2, §3, §4

In test [4] the test system is STEME: chickweed, common (Stellaria media). The settings on record: 59 DAA, AB.
Description: as §1, §2, §3, §4

For test [5], the system named is AMBEL: ragweed, common (Ambrosia artemisiifolia). The settings on record: 28 DAA, ON, premix 5 + 77 (82) g ae/ha, MCPA ester 350 g ae/ha, alone or combined.
Description: as §1, §2, §3, §4

In test [6] the test system is POLCO: wild buckwheat (Polygonum convolvulus). The note with it: premix 6.5 + 100 (106.5) g ae/ha, MCPA ester 420 g ae/ha, alone or combined.
Description: as §1, §2, §3, §4

In test [7] the test system is POLPE: lady's-thumb (Polygonum persicaria).
Description: as §1, §2, §3, §4

Test [8] relates to TRFPR: red clover (Trifolium pratense). The settings on record: 84 DAA, ON, halauxifen-methyl 5, fluroxypyr-meptyl 77, 2,4-D ester 350 g ae/ha, each alone or three-way combination.
Description: as §1, §2, §3, §4

For test [9], the system named is AMBTR: giant ragweed (Ambrosia trifida). The settings on record: 49 DAA, ON, halauxifen-methyl 5, fluroxypyr-meptyl 77, 2,4-D ester 350 g ae/ha, each alone or three-way combination.
Description: as §1, §2, §3, §4

Where [10] appears, read: 14 DAA, halauxifen-methyl 6.5, fluroxypyr-meptyl 100, MCPA ester 420 g ae/ha, each alone or three-way combination.
Where [11] appears, read: 33 DAA, halauxifen-methyl 6.5, fluroxypyr-meptyl 100, MCPA ester 420 g ae/ha, each alone or three-way combination.
Setting [12] is: halauxifen-methyl 6.5, fluroxypyr-meptyl 100, MCPA ester 420 g ae/ha, each alone or three-way combination.
Setting [13] is: premix 6.5 + 100 (106.5) g ae/ha, MCPA ester 420 g ae/ha, alone or combined.
[14] abbreviates: 14 DAA, AB, halauxifen-methyl 6.5, fluroxypyr-meptyl 100, MCPA ester 420 g ae/ha, each alone or three-way combination.
Setting [15] is: 49 DAA, AB, halauxifen-methyl 6.5, fluroxypyr-meptyl 100, MCPA ester 420 g ae/ha, each alone or three-way combination.
Where [16] appears, read: 57 DAA, AB, halauxifen-methyl 6.5, fluroxypyr-meptyl 100, MCPA ester 420 g ae/ha, each alone or three-way combination.
Where [17] appears, read: 59 DAA, AB, halauxifen-methyl 6.5, fluroxypyr-meptyl 100, MCPA ester 420 g ae/ha, each alone or three-way combination.
Where [18] appears, read: SK, 49 DAA or 57 DAA, halauxifen-methyl 6.5, fluroxypyr-meptyl 100, MCPA ester 420 g ae/ha, each alone or three-way combination.

As for `CCCCC(CC)COC(=O)COc1ccc(Cl)cc1C` (centres unmarked) [MCPA ester, 2-ethylhexyl 2-(4-chloro-2-methylphenoxy)acetate], the “Obs: Observed percent weed control” value is 0% in test [1]; 80% in test [2] (setting [10]); 95% in test [2] (setting [11]); 95% in test [2] (33 DAA, premix 6.5 + 100 (106.5) g ae/ha, MCPA ester 420 g ae/ha, alone or combined); 31% in [3] (setting [12]); 31% in test [3] (setting [13]). For the same molecule, the “Obs: Observed percent weed control” value is listed as 0% in [4] (setting [12]); 0% in [4] (setting [13]); 15% in test [5]; 0% in [6] (35 DAA, MB); 0% in test [6] (47 DAA, MB); 43% in test [6] (63 DAA, AB). Moreover, the “Obs: Observed percent weed control” value in test [7] (setting [14]) was found to be 0%; in test [7] (14 DAA, MB, premix 5 + 77 (82) g ae/ha, MCPA ester 350 g ae/ha, alone or combined), 38%; in test [7] (14 DAA, MB, premix 6.5 + 100 (106.5) g ae/ha, MCPA ester 420 g ae/ha, alone or combined) it was 38%; in test [7] (34 DAA, MB, premix 5 + 77 (82) g ae/ha, MCPA ester 350 g ae/ha, alone or combined), 40%; in [7] (34 DAA, MB, premix 6.5 + 100 (106.5) g ae/ha, MCPA ester 420 g ae/ha, alone or combined) it was 40%; in [7] (49 DAA (likely), MB, premix 6.5 + 100 (106.5) g ae/ha, MCPA ester 420 g ae/ha, alone or combined), 27%. Besides, the “Obs: Observed percent weed control” value in test [7] (setting [15]) is given as 0%; in test [7] (49 DAA, AB, premix 6.5 + 100 (106.5) g ae/ha, MCPA ester 420 g ae/ha, alone or combined) it was 0%; in [7] (54 DAA, MB, premix 6.5 + 100 (106.5) g ae/ha, MCPA ester 420 g ae/ha, alone or combined) it was 38%; in test [7] (setting [16]), 0%; in test [7] (57 DAA, AB, premix 6.5 + 100 (106.5) g ae/ha, MCPA ester 420 g ae/ha, alone or combined), 0%; in test [7] (setting [17]), 35%. Besides, the “Obs: Observed percent weed control” value in [7] (59 DAA, AB, premix 6.5 + 100 (106.5) g ae/ha, MCPA ester 420 g ae/ha, alone or combined) is 35%; in test [7] (setting [18]), 30%.
As to `CCCCC(CC)COC(=O)COc1ccc(Cl)cc1Cl` (centres unmarked) [2,4-D ester, 2-ethylhexyl(2,4-dichlorophenoxy)acetate], the “Obs: Observed percent weed control” value in test [8] turned out to be 7.4%; in [9] it was 83%.
Take `CCCCCCC(C)OC(=O)COc1nc(F)c(Cl)c(N)c1Cl` (centres unmarked) [Fluroxypyr-meptyl, 1-methylheptyl 2-[(4-amino-3,5-dichloro-6-fluoro-2-pyridinyl)oxy]acetate]: the “Obs: Observed percent weed control” value in test [2] (setting [10]) stood at 30%; in test [2] (setting [11]) it was 20%; in [3] (setting [12]) it was 39%; in [4] (setting [12]) it was 15%; in test [7] (setting [14]), 0%; in test [7] (setting [15]) it was 0%. In addition, the “Obs: Observed percent weed control” value is given as 23% in test [7] (setting [16]); 61% in [7] (setting [17]); 25% in test [7] (setting [18]); 12.4% in [8]; 21.7% in test [9].
For `COC(=O)c1nc(-c2ccc(Cl)c(OC)c2F)cc(N)c1Cl` [Halauxifen-methyl, methyl 4-amino-3-chloro-6-(4-chloro-2-fluoro-3-methoxyphenyl)-2-pyridinecarboxylate], the “Obs: Observed percent weed control” value is 20% in test [2] (setting [10]); 15% in test [2] (setting [11]); 79% in test [3] (setting [12]); 24% in test [4] (setting [12]); 0% in test [7] (setting [14]); 0% in [7] (setting [15]). Also, the “Obs: Observed percent weed control” value stood at 0% in test [7] (setting [16]); 33% in test [7] (setting [17]); 10% in [7] (setting [18]); 15% in test [8]; 20% in test [9].
